{
  "source": "patent US8952024B2",
  "about": "“Herbicidal pyrimidone derivatives” (E I du Pont de Nemours and Company, priority 2009, dated 2015)",
  "type_in_all_cases": "in vivo",
  "key": {"[1]": {"tested_on": "giant foxtail (Setaria faberii)", "assay": "Test A pre-/postemergence plant response", "procedure,_shortened": "(§1)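 Injury scores (0, no effect; 100, complete control) come from visual comparison with untreated controls roughly ten days post-treatment. Test chemicals in a surfactant-containing non-phytotoxic solvent were applied as a directed soil spray preemergence and to one- to two-leaf seedlings postemergence.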"}, "[2]": {"tested_on": "wheat (Triticum aestivum)", "assay": "Test A pre-/postemergence plant response", "procedure,_shortened": "as §1"}, "[3]": {"tested_on": "large crabgrass (Digitaria sanguinalis)", "assay": "Test A pre-/postemergence plant response", "procedure,_shortened": "as §1"}, "[4]": {"tested_on": "pigweed (Amaranthus retroflexus)", "assay": "Test A pre-/postemergence plant response", "procedure,_shortened": "as §1"}, "[5]": {"tested_on": "velvetleaf (Abutilon theophrasti)", "assay": "Test A pre-/postemergence plant response", "procedure,_shortened": "as §1"}, "[6]": {"tested_on": "barnyardgrass (Echinochloa crus-galli)", "assay": "Test A pre-/postemergence plant response", "procedure,_shortened": "as §1"}, "[7]": {"tested_on": "morningglory (Ipomoea spp.)", "assay": "Test A pre-/postemergence plant response", "conditions": "approx. ten days; for Plant response rating, Morningglory: 500 g ai/ha", "procedure,_shortened": "as §1"}, "corn (Zea mays)": {"tested_on": "corn (Zea mays)", "assay": "Test A pre-/postemergence plant response", "procedure,_shortened": "as §1"}, "[8]": {"tested_on": "wheat (Triticum aestivum)", "assay": "Test B pre-/postemergence plant response", "description": "(§2) Seeds of plant species selected from blackgrass (Alopecurus myosuroides), downy bromegrass (Bromus tectorum), green foxtail (Setaria viridis), Italian ryegrass (Lolium multiflorum), wheat (Triticum aestivum), wild oat (Avena fatua), deadnettle (henbit deadnettle, Lamium amplexicaule), galium (catchweed bedstraw, Galium aparine), bermudagrass (Cynodon dactylon), Surinam grass (Brachiaria decumbens), cocklebur (Xanthium strumarium), corn (Zea mays), large crabgrass (Digitaria sanguinalis), woolly cupgrass (Eriochloa villosa), giant foxtail (Setaria faberii), goosegrass (Eleusine indica), johnsongrass (Sorghum halepense), kochia (Kochia scoparia), lambsquarters (Chenopodium album), morningglory (Ipomoea coccinea), nightshade (eastern black nightshade, Solanum ptycanthum), yellow nutsedge (Cyperus esculentus), pigweed (Amaranthus retroflexus), ragweed (common ragweed, Ambrosia elatior), Russian thistle (Salsola kali), soybean (Glycine max), sunflower (common oilseed sunflower, Helianthus annuus) and velvetleaf (Abutilon theophrasti) were planted into a blend of loam soil and sand and treated preemergence with test compounds formulated in a non-phytotoxic solvent mixture which included a surfactant.\n(§3) At the same time, plants selected from these crop and weed species and also winter barley (Hordeum vulgare), canarygrass (Phalaris minor), chickweed (Stellaria media) and windgrass (Apera spica-venti) were planted in pots containing Redi-Earth® planting medium (Scotts Company, 14111 Scottslawn Road, Marysville, Ohio 43041) comprising spaghnum peat moss, vermiculite, wetting agent and starter nutrients and treated with postemergence applications of some of the test chemicals formulated in the same manner. Plants ranged in height from 2 to 18 cm (1- to 4-leaf stage) for postemergence treatments.\n(§4) Treated plants and controls were maintained in a greenhouse for 13 to 15 days, after which time all treated plants were visually evaluated and compared to controls. Plant response ratings, summarized in Table B, are based on a scale of 0 to 100 where 0 is no effect and 100 is complete control. A dash (-) response means no test result."}, "[9]": {"tested_on": "cocklebur (Xanthium strumarium)", "assay": "Test B pre-/postemergence plant response", "description": "as §2, §3, §4"}, "[10]": {"tested_on": "bermudagrass (Cynodon dactylon)", "assay": "Test B pre-/postemergence plant response", "description": "as §2, §3, §4"}, "[11]": {"conditions": "Postemergence, 125 g ai/ha, visual injury, 0 to 100 scale (0 no effect, 100 complete control), approx. ten days"}, "[12]": {"conditions": "Postemergence, 500 g ai/ha, 0 to 100 scale, 0 = no effect, 100 = complete control, approx. ten days"}, "[13]": {"conditions": "Preemergence, 125 g ai/ha, 0 to 100 scale, 0 = no effect, 100 = complete control"}, "[14]": {"conditions": "Preemergence, 500 g ai/ha, visual injury, 0 to 100 scale (0 no effect, 100 complete control), approx. ten days"}, "[15]": {"conditions": "31 g ai/ha, postemergence, scale 0 to 100, 0 is no effect, 100 is complete control"}, "[16]": {"conditions": "62 g ai/ha, postemergence, 0 is no effect, 100 is complete control, 13 to 15 days"}, "[17]": {"conditions": "Postemergence, 125 g ai/ha, visual rating after 13 to 15 days, scale 0 (no effect) to 100 (complete control)"}, "[18]": {"conditions": "Postemergence, 250 g ai/ha, scale 0 to 100 (0 no effect, 100 complete control)"}, "[19]": {"conditions": "Preemergence, 31 g ai/ha, scale 0 to 100 (0 no effect, 100 complete control)"}, "[20]": {"conditions": "Preemergence, 62 g ai/ha, scale 0 to 100, 0 no effect, 100 complete control"}, "[21]": {"conditions": "Preemergence, 125 g ai/ha, scale 0 to 100, 0 no effect, 100 complete control"}, "[22]": {"conditions": "250 g ai/ha, Preemergence, 0 to 100 scale"}},
  "data": [
    {"smiles": "CCCc1ncc(C(=O)C2=C(O)CCCC2=O)c(=O)n1CCC", "note": "[Compound 72]", "values": [
      {"measurement": "Foxtail, Giant plant response rating", "setting": "[1]; [11]", "value": 40},
      {"measurement": "Plant response rating, Foxtail, Giant", "setting": "[1]; [12]", "value": 60},
      {"measurement": "Plant response rating, Foxtail, Giant", "setting": "[1]; [13]", "value": 0},
      {"measurement": "Plant response rating, Foxtail, Giant", "setting": "[1]; [14]", "value": 30},
      {"measurement": "Wheat plant response rating", "setting": "[2]; [11]", "value": 0},
      {"measurement": "Plant response rating, Wheat", "setting": "[2]; [12]", "value": 0},
      {"measurement": "Plant response rating, Wheat", "setting": "[2]; [13]", "value": 0},
      {"measurement": "Plant response rating, Wheat", "setting": "[2]; [14]", "value": 0},
      {"measurement": "Crabgrass, Large plant response rating", "setting": "[3]; [11]", "value": 80},
      {"measurement": "Plant response rating, Crabgrass, Large", "setting": "[3]; [12]", "value": 90},
      {"measurement": "Plant response rating, Crabgrass, Large", "setting": "[3]; [13]", "value": 70},
      {"measurement": "Plant response rating, Crabgrass, Large", "setting": "[3]; [14]", "value": 100},
      {"measurement": "Pigweed plant response rating", "setting": "[4]; [11]", "value": 80},
      {"measurement": "Plant response rating, Pigweed", "setting": "[4]; [12]", "value": 100},
      {"measurement": "Plant response rating, Pigweed", "setting": "[4]; [13]", "value": 50},
      {"measurement": "Plant response rating, Pigweed", "setting": "[4]; [14]", "value": 90},
      {"measurement": "Velvetleaf plant response rating", "setting": "[5]; [11]", "value": 100},
      {"measurement": "Plant response rating, Velvetleaf", "setting": "[5]; [12]", "value": 100},
      {"measurement": "Plant response rating, Velvetleaf", "setting": "[5]; [13]", "value": 90},
      {"measurement": "Plant response rating, Velvetleaf", "setting": "[5]; [14]", "value": 100},
      {"measurement": "Barnyardgrass plant response rating", "setting": "[6]; [11]", "value": 80},
      {"measurement": "Plant response rating, Barnyardgrass", "setting": "[6]; [12]", "value": 90},
      {"measurement": "Plant response rating, Barnyardgrass", "setting": "[6]; [13]", "value": 10},
      {"measurement": "Plant response rating, Barnyardgrass", "setting": "[6]; [14]", "value": 60},
      {"measurement": "Morningglory plant response rating", "setting": "[7]; Postemergence, 125 g ai/ha, visual injury, 0 to 100 scale (0 no effect, 100 complete control)", "value": 90},
      {"measurement": "Plant response rating, Morningglory", "setting": "[7]; Postemergence, 0 to 100 scale, 0 = no effect, 100 = complete control", "value": 90},
      {"measurement": "Plant response rating, Morningglory", "setting": "[7]; Preemergence, visual injury, 0 to 100 scale (0 no effect, 100 complete control)", "value": 70},
      {"measurement": "Corn plant response rating", "setting": "corn (Zea mays); [11]", "value": 0},
      {"measurement": "Plant response rating, Corn", "setting": "corn (Zea mays); [12]", "value": 10},
      {"measurement": "Plant response rating, Corn", "setting": "corn (Zea mays); [13]", "value": 0},
      {"measurement": "Plant response rating, Corn", "setting": "corn (Zea mays); [14]", "value": 20},
      {"measurement": "Plant response rating, Wheat", "setting": "[8]; [15]", "value": 0},
      {"measurement": "Wheat plant response rating (0 to 100 scale)", "setting": "[8]; [16]", "value": 5},
      {"measurement": "Plant response rating, Wheat", "setting": "[8]; [17]", "value": 10},
      {"measurement": "Plant response rating, Wheat", "setting": "[8]; [18]", "value": 10},
      {"measurement": "Plant response rating, Wheat", "setting": "[8]; [19]", "value": 0},
      {"measurement": "Plant response rating, Wheat", "setting": "[8]; [20]", "value": 0},
      {"measurement": "Plant response rating, Wheat", "setting": "[8]; [21]", "value": 0},
      {"measurement": "Plant response rating, Cocklebur", "setting": "[9]; [15]", "value": 75},
      {"measurement": "Cocklebur plant response rating (0 to 100 scale)", "setting": "[9]; [16]", "value": 80},
      {"measurement": "Plant response rating, Cocklebur", "setting": "[9]; [22]", "value": 80},
      {"measurement": "Plant response rating, Cocklebur", "setting": "[9]; [17]", "value": 90},
      {"measurement": "Plant response rating, Cocklebur", "setting": "[9]; [18]", "value": 95},
      {"measurement": "Plant response rating, Cocklebur", "setting": "[9]; [19]", "value": 10},
      {"measurement": "Plant response rating, Cocklebur", "setting": "[9]; [20]", "value": 50},
      {"measurement": "Plant response rating, Cocklebur", "setting": "[9]; [21]", "value": 70},
      {"measurement": "Plant response rating, Bermudagrass", "setting": "[10]; [15]", "value": 75},
      {"measurement": "Bermudagrass plant response rating (0 to 100 scale)", "setting": "[10]; [16]", "value": 80},
      {"measurement": "Plant response rating, Bermudagrass", "setting": "[10]; [22]", "value": 100},
      {"measurement": "Plant response rating, Bermudagrass", "setting": "[10]; [17]", "value": 85},
      {"measurement": "Plant response rating, Bermudagrass", "setting": "[10]; [18]", "value": 85},
      {"measurement": "Plant response rating, Bermudagrass", "setting": "[10]; [19]", "value": 95},
      {"measurement": "Plant response rating, Bermudagrass", "setting": "[10]; [20]", "value": 98},
      {"measurement": "Plant response rating, Bermudagrass", "setting": "[10]; [21]", "value": 98}
    ]}
  ]
}
